Values of other authors as cited in patent US20080182860A1, “Pyrimidine Compounds as Purine Receptor Antagonist” (VERNALIS (R&D) LTD., priority 2004, published 2008).

Key:
Parkinsonian patients = conditions: 150 mg/day slow release oral

| Compound | anticataleptic effects of a subthreshold dose of L-DOPA plus benserazide (adenosine A2A receptor; in vivo) | catalepsy induced by haloperidol and reserpine (adenosine A2A receptor; in vivo) | cataleptic responses induced by intracerebroventricular CGS 21680 (adenosine A2A receptor; oral administration) | serum theophylline levels (Parkinsonian patients; after one week, 15 Parkinsonian patients) | mean objective disability scores (Parkinsonian patients; up to 12 weeks) |
| --- | --- | --- | --- | --- | --- |
| CCCn1c(=O)c2c(nc(/C=C/c3ccc(OC)c(OC)c3)n2C)n(CCC)c1=O [KF 17837, (E)-8-(3,4-dimethoxystyryl)-1,3-dipropyl-7-methylxanthine] | potentiated | reduced | significantly ameliorated | – | – |
| Cn1c(=O)c2[nH]cnc2n(C)c1=O [Theophylline, 1,3-dimethylxanthine] | – | – | – | 4.44 mg/L | significant improvements |
